The record followed here is patent US20170008928A1, “NOVEL PEPTIDES AND PEPTIDE DERIVATIVES AND USES THEREOF” (Novo Nordisk A/S, priority 2015, published 2017).

Assay [1] addresses T1, human cholecystokinin-2 receptor (CCK-2R) (Homo sapiens, UniProt P32239).
T1 construct: host or cells: 1321-N1 cells (plasma membranes prepared by Evotec AG Hamburg)
T1 sequence (P32239 1-447): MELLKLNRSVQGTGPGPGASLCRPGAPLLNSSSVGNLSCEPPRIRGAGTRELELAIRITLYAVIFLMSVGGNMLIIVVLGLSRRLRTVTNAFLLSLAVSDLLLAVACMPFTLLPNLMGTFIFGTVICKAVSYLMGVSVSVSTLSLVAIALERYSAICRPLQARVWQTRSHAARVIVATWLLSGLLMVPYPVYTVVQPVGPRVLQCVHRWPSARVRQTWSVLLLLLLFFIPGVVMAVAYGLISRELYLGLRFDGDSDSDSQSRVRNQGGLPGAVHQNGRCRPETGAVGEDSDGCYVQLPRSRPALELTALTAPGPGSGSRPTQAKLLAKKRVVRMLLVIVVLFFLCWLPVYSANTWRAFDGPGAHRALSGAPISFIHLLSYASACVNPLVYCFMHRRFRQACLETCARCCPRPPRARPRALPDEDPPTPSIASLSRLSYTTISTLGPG
Nature of the assay: In vitro receptor binding to CCK-2R, SPA displacement of [125I]-CCK-8s from plasma membranes.

Assay [2] addresses T1, human cholecystokinin-2 receptor (CCK-2R). Nature of the assay: In vitro potency on CCK-2R, whole cell functional assay (IP1 accumulation, IP-One HTRF). The class given is cell-based. In general terms: Time-resolved FRET reads energy transfer from a long-lived donor to a nearby acceptor.
The target in assay [3] is T2, human cholecystokinin-1 receptor (CCK-1R) (Homo sapiens, UniProt P32238).
T2 construct: host or cells: 1321-N1 cells
T2 sequence (P32238 1-428): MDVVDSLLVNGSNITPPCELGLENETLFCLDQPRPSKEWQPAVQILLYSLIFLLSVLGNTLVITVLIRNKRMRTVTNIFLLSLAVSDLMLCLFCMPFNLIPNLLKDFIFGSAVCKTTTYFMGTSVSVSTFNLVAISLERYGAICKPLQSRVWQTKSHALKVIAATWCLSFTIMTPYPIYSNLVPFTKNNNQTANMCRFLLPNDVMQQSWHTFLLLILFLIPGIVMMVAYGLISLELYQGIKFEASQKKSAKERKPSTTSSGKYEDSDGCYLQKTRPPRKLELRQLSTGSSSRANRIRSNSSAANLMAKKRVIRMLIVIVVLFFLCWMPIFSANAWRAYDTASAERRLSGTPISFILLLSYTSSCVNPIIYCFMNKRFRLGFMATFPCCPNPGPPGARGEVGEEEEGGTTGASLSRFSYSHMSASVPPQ
Nature of the assay: In vitro receptor binding to CCK-1R, SPA displacement of [125I]-CCK-8s from plasma membranes.

Assay [4] has as its target T2, human cholecystokinin-1 receptor (CCK-1R). Kind of assay: In vitro potency on CCK-1R, whole cell functional assay (IP1 accumulation, IP-One HTRF). The class given is cell-based.
The mark [5] stands for this setting: displacement of [125I]-CCK-8s, plasma membranes of 1321-N1 cells expressing CCK-2R, highest dose tested 1×10^7 pM, read-out: IC50 (CCK-2R).
The mark [6] stands for this setting: 1321-N1 cells stably expressing CCK-2R, IP1 accumulation, highest dose tested 1×10^6 pM, read-out: EC50 (CCK-2R).
[7] abbreviates: displacement of [125I]-CCK-8s, plasma membranes of 1321-N1 cells expressing CCK-1R, read-out: IC50 (CCK-1R).

Where two headings read alike, the source gives them in different places. Starred links: 1 amine or outer side, 2 acyl side, 3 side chain; linkers in the order of their positions; H or OH if unused. Non-standard residues stand in square brackets, D forms with d. Residues, ends and D or L forms follow the SMILES beside them. *: point of attachment. Phe(4-CH2SO3H) = N[C@@H](Cc1ccc(CS(=O)(=O)O)cc1)C(=O)O; C20 diacid = O=C(O)CCCCCCCCCCCCCCCCCCC(=O)*; sY = N[C@@H](Cc1ccc(OS(=O)(=O)O)cc1)C(=O)O; C18 diacid = O=C(O)CCCCCCCCCCCCCCCCC(=O)*; γGlu = O=C(O)[C@H](CCC(=O)[*:2])N[*:1]; 1Nal = N[C@@H](Cc1cccc2ccccc12)C(=O)O; C14 diacid = O=C(O)CCCCCCCCCCCCC(=O)*; NMeF = CN[C@@H](Cc1ccccc1)C(=O)O; dNMeD = CN[C@H](CC(=O)O)C(=O)O; Nle = CCCC[C@H](N)C(=O)O; AEEA = NCCOCCOCC(=O)O Where only a bound is given, the exact number is not on record here.

Turning to `CCCC[C@H](NC(=O)[C@H](Cc1c[nH]c2ccccc12)NC(=O)CNC(=O)[C@H](CC(C)C)NC(=O)[C@H](Cc1ccc(CS(=O)(=O)O)cc1)NC(=O)[C@H](CC(=O)O)NC(=O)COCCOCCNC(=O)COCCOCCNC(=O)CC[C@H](NC(=O)CCCCCCCCCCCCCCCCCCC(=O)O)C(=O)O)C(=O)N(C)[C@H](CC(=O)O)C(=O)N(C)[C@@H](Cc1ccccc1)C(N)=O` [Example 35, 2-[2-[2-[[2-[2-[2-[[(4S)-4-Carboxy-4-(19-carboxynonadecanoylamino)butanoyl]amino]ethoxy]ethoxy]acetyl]amino]ethoxy]ethoxy]acetyl-Asp-Phe(4-sulfomethyl)-Leu-Gly-Trp-Nle-DMeAsp-MePhe-amide] ({C20 diacid-γGlu-AEEA-AEEA}-D[Phe(4-CH2SO3H)]LGW[Nle][dNMeD][NMeF]-NH2), the IC50 (in general, the point on the concentration scale where inhibition reaches its midpoint) in assay [1] (setting [5]) is over 10000 nM. Also, in assay [2] (setting [6]), the EC50 (usually the concentration that produces a half-maximal response) was over 1000 nM.

As to `CCCC[C@H](NC(=O)[C@H](Cc1c[nH]c2ccccc12)NC(=O)CNC(=O)[C@H](CC(C)C)NC(=O)[C@H](Cc1ccc(OS(=O)(=O)O)cc1)NC(=O)[C@H](CC(=O)O)NC(=O)[C@H](CO)NC(=O)[C@H](CO)NC(=O)CNC(=O)[C@H](CO)NC(=O)[C@H](CO)NC(=O)CNC(=O)CCCCCCCCCCCCCCCCC(=O)O)C(=O)N(C)[C@H](CC(=O)O)C(=O)N(C)[C@@H](Cc1ccccc1)C(N)=O` [Example 29, 17-Carboxyheptadecanoyl-Gly-Ser-Ser-Gly-Ser-Ser-Asp-sTyr-Leu-Gly-Trp-Nle-DMeAsp-MePhe-amide] ({C18 diacid}-GSSGSSD[sY]LGW[Nle][dNMeD][NMeF]-NH2), the IC50 in assay [3] (setting [7]) came to 0.072 nM. The “CCK-1R binding selectivity (IC50 (CCK-2R)/IC50 (CCK-1R))” value in assay [3] (ratio of binding IC50 values, >1 = preference for CCK-1R) was 5100. In assay [4] (ratio of functional EC50 values, >1 = preference for CCK-1R), the “CCK-1R selectivity (EC50 (CCK-2R)/EC50 (CCK-1R))” value is 28.

As to `CCCC[C@H](NC(=O)[C@H](Cc1ccc(OS(=O)(=O)O)cc1)NC(=O)[C@H](CC(=O)O)NC(=O)COCCOCCNC(=O)COCCOCCNC(=O)CC[C@H](NC(=O)CCCCCCCCCCCCCCCCC(=O)O)C(=O)O)C(=O)NCC(=O)N[C@@H](Cc1c[nH]c2ccccc12)C(=O)N[C@@H](CCCC)C(=O)N(C)[C@H](CC(=O)O)C(=O)N[C@@H](Cc1cccc2ccccc12)C(N)=O` [Example 2, 2-[2-[2-[[2-[2-[2-[[(4S)-4-Carboxy-4-(17-carboxyheptadecanoylamino)butanoyl]amino]ethoxy]ethoxy]acetyl]amino]ethoxy]ethoxy]acetyl-Asp-sTyr-Nle-Gly-Trp-Nle-DMeAsp-1Nal-amide] ({C18 diacid-γGlu-AEEA-AEEA}-D[sY][Nle]GW[Nle][dNMeD][1Nal]-NH2), the IC50 in assay [1] (setting [5]) turned out to be 1000 nM; in assay [3] (setting [7]) it was 0.13 nM. The EC50 in assay [2] (setting [6]) is 180 nM.

On to `CCCC[C@H](NC(=O)[C@H](Cc1ccc(CS(=O)(=O)O)cc1)NC(=O)[C@H](CC(=O)O)NC(=O)COCCOCCNC(=O)COCCOCCNC(=O)CC[C@H](NC(=O)CCCCCCCCCCCCCCCCC(=O)O)C(=O)O)C(=O)NCC(=O)N[C@@H](Cc1c[nH]c2ccccc12)C(=O)N[C@@H](CCCC)C(=O)N(C)[C@H](CC(=O)O)C(=O)N(C)[C@@H](Cc1ccccc1)C(N)=O` [Example 3, 2-[2-[2-[[2-[2-[2-[[(4S)-4-Carboxy-4-(17-carboxyheptadecanoylamino)butanoyl]amino]ethoxy]ethoxy]acetyl]amino]ethoxy]ethoxy]acetyl-Asp-Phe(4-sulfomethyl)-Nle-Gly-Trp-Nle-DMeAsp-MePhe-amide] ({C18 diacid-γGlu-AEEA-AEEA}-D[Phe(4-CH2SO3H)][Nle]GW[Nle][dNMeD][NMeF]-NH2), for which the values for the IC50 in assay [1] and in assay [3] were over 10000 nM and 0.26 nM, respectively. In addition, the figures for the EC50 in assay [2] and in assay [4] were over 1000 nM and 0.31 nM, respectively.

In the case of `CCCC[C@H](NC(=O)[C@H](Cc1c[nH]c2ccccc12)NC(=O)CNC(=O)[C@H](CC(C)C)NC(=O)[C@H](Cc1ccc(CS(=O)(=O)O)cc1)NC(=O)[C@H](CC(=O)O)NC(=O)COCCOCCNC(=O)COCCOCCNC(=O)CC[C@H](NC(=O)CCCCCCCCCCCCC(=O)O)C(=O)O)C(=O)N(C)[C@H](CC(=O)O)C(=O)N(C)[C@@H](Cc1ccccc1)C(N)=O` [Example 34, 2-[2-[2-[[2-[2-[2-[[(4S)-4-Carboxy-4-(13-carboxytridecanoylamino)butanoyl]amino]ethoxy]ethoxy]acetyl]amino]ethoxy]ethoxy]acetyl-Asp-Phe(4-sulfomethyl)-Leu-Gly-Trp-Nle-DMeAsp-MePhe-amide] ({C14 diacid-γGlu-AEEA-AEEA}-D[Phe(4-CH2SO3H)]LGW[Nle][dNMeD][NMeF]-NH2), in assay [1] (setting [5]), the IC50 was over 10000 nM. The EC50 in assay [2] (setting [6]) was over 1000 nM; in assay [4] (1321-N1 cells stably expressing CCK-1R, IP1 accumulation, average of min. three replicates, read-out: EC50 (CCK-1R)) it was 0.21 nM.
